Legend:
[1] = compound: T1, C[C@H]1CNCCN1c1nccc(-c2noc3c2CCC[C@@]32CCCc3sc(N)c(C#N)c32)n1 [BI-2493]; assay: 1 - AUC of viability dose-response curve (sensitivity) (fraction); higher = more sensitive; conditions: 5 days
Procedure: (§1)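 PRISM pooled barcoded cancer cell line viability screen (Broad Institute) with BI-2493 at 8 doses in threefold dilutions from 0.00457 to 10 µmol/L, 5-day treatment; curves fitted per cell line. IC50 is undefined (placeholder) for resistant lines. AUC is capped at 1, and sensitivity is reported as 1 − AUC.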

[2] = compound: T1, BI-2493; conditions: 5 days
Procedure: as §1

Test System | 1 - AUC of viability dose-response curve [1] | IC50 of cell viability [2]
MON_SOFT_TISSUE | 0.163 | 2.57 µM
HEC116_ENDOMETRIUM | 0.012 | 9.57 µM
OE21_OESOPHAGUS | 0.112 | 3.82 µM
BICR16_UPPER_AERODIGESTIVE_TRACT | 0.263 | 5.24 µM
U343_CENTRAL_NERVOUS_SYSTEM | 0.0705 | 6.54 µM
UMUC11_URINARY_TRACT | 0.101 | 6.87 µM
C32_SKIN | 0.0594 | 9.25 µM
H376_UPPER_AERODIGESTIVE_TRACT | 0.243 | 5.33 µM
639V_URINARY_TRACT | 0.116 | > 10 µM
DETROIT562_UPPER_AERODIGESTIVE_TRACT | 0.18 | 2.81 µM
QGP1_PANCREAS | 0.253 | 1.55 µM
NCIH1573_LUNG | 0.0775 | 7.27 µM
TT_THYROID | 0.0835 | 6.45 µM
COV644_OVARY | 0.157 | 7.18 µM
LNZ308_CENTRAL_NERVOUS_SYSTEM | 0.142 | 7.52 µM
KYSE270_OESOPHAGUS | 0.113 | 5.56 µM
TC106_BONE | 0.108 | 5.11 µM
SNU213_PANCREAS | 0.106 | 5.63 µM
LCLC103H_LUNG | 0.0229 | 8.64 µM

Test System | 1 - AUC of viability dose-response curve [1] | IC50 of cell viability [2]
GCT_SOFT_TISSUE | 0.0856 | 6.05 µM
697_HAEMATOPOIETIC_AND_LYMPHOID_TISSUE | 0.0309 | 8.3 µM
AN3CA_ENDOMETRIUM | 0.142 | 4.74 µM
WERIRB1_AUTONOMIC_GANGLIA | 0.052 | 9.33 µM
MONOMAC6_HAEMATOPOIETIC_AND_LYMPHOID_TISSUE | 0.149 | 7.72 µM
COLO680N_OESOPHAGUS | 0.0719 | 8.49 µM
BXPC3_PANCREAS | 0.0507 | > 10 µM
HCSC1_CERVIX | 0.0229 | 9.79 µM
H157_UPPER_AERODIGESTIVE_TRACT | 0.023 | 8.84 µM
LN18_CENTRAL_NERVOUS_SYSTEM | 0.0792 | 6.48 µM
SBC5_LUNG | 0.122 | 5.31 µM
SKLMS1_SOFT_TISSUE | 0.0071 | 9.65 µM
HUO9_BONE | 0.0106 | 9.56 µM
RERFLCMS_LUNG | 0.037 | 8.02 µM
HS611T_HAEMATOPOIETIC_AND_LYMPHOID_TISSUE | < 0 | > 10 µM
NB1_AUTONOMIC_GANGLIA | 0.201 | 3.3 µM
ABC1_LUNG | 0.0666 | 7.12 µM
P12ICHIKAWA_HAEMATOPOIETIC_AND_LYMPHOID_TISSUE | 0.121 | 3.63 µM
COLO320_LARGE_INTESTINE | 0.057 | 7.35 µM
